# Results reported in the supplement of paper PMC11061612.
# Key:
# Carboplatin = compound: C1CC(C1)(C(=O)[O-])C(=O)[O-].N.N.[Pt+2] [Carboplatin]; conditions: max 10 µM
# In short: (§1)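 Cancer cell lines were plated in 1536-well plates in 7.5 μl of DMEM/F12 or RPMI with 10% FBS and kept 24 hours at 37°C and 5% CO2 before 72 hours of dosing, with final DMSO typically 0.2%. CellTiter-Glo 2.0 luminescence measured viability, scaled between blank-well and DMSO-well means. Dose responses were fitted to a two-parameter logistic curve with a non-linear mixed effects model. This fit gives the single-agent IC50.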
# AZD5363 = compound: C1CN(CCC1(C(=O)N[C@@H](CCO)C2=CC=C(C=C2)Cl)N)C3=NC=NC4=C3C=CN4 [AZD5363]; conditions: max 10 µM
# In short: as §1
# AZD1775 = compound: C=CCn1c(=O)c2cnc(Nc3ccc(N4CCN(C)CC4)cc3)nc2n1-c1cccc(C(C)(C)O)n1 [AZD1775]; conditions: max 3 µM
# In short: as §1
# Trametinib = compound: CC(=O)Nc1cccc(-n2c(=O)n(C3CC3)c(=O)c3c(Nc4ccc(I)cc4F)n(C)c(=O)c(C)c32)c1 [Trametinib]; conditions: max 1 µM
# In short: as §1
# Paclitaxel = compound: CC(=O)O[C@H]1C(=O)[C@@]2(C)[C@H]([C@H](OC(=O)c3ccccc3)[C@]3(O)C[C@H](OC(=O)[C@H](O)[C@@H](NC(=O)c4ccccc4)c4ccccc4)C(C)=C1C3(C)C)[C@]1(OC(C)=O)CO[C@@H]1C[C@@H]2O [Paclitaxel]; conditions: max 3 µM
# In short: as §1
# Palbociclib = compound: CC(=O)c1c(C)c2cnc(Nc3ccc(N4CCNCC4)cn3)nc2n(C2CCCC2)c1=O [Palbociclib]; conditions: max 10 µM
# In short: as §1
# AZD1390 = compound: CC(C)n1c(=O)n(C)c2cnc3cc(F)c(-c4ccc(OCCCN5CCCCC5)nc4)cc3c21 [AZD1390]; conditions: max 0.3 µM
# In short: as §1
# Venetoclax = compound: CC1(C)CCC(CN2CCN(c3ccc(C(=O)NS(=O)(=O)c4ccc(NCC5CCOCC5)c([N+](=O)[O-])c4)c(Oc4cnc5[nH]ccc5c4)c3)CC2)=C(c2ccc(Cl)cc2)C1 [Venetoclax]; conditions: max 1 µM
# In short: as §1
# Dasatinib = compound: CC1=C(C(=CC=C1)Cl)NC(=O)C2=CN=C(S2)NC3=CC(=NC(=N3)C)N4CCN(CC4)CCO [Dasatinib]; conditions: max 2 µM
# In short: as §1
# SG3199 = compound: CC1=CN2[C@@H](C1)C=NC3=CC(=C(C=C3C2=O)OC)OCCCCCOC4=C(C=C5C(=C4)N=C[C@@H]6CC(=CN6C5=O)C)OC [SG3199]; conditions: max 0.001 µM
# In short: as §1
# AZD2811 = compound: CCN(CCO)CCCOc1ccc2c(Nc3cc(CC(=O)Nc4cccc(F)c4)[nH]n3)ncnc2c1 [AZD2811]; conditions: max 1 µM
# In short: as §1
# SN-38 = compound: CCc1c2c(nc3ccc(O)cc13)-c1cc3c(c(=O)n1C2)COC(=O)[C@]3(O)CC [SN-38]; conditions: max 0.3 µM
# In short: as §1
# AZD0156 = compound: CN(C)CCCOc1ccc(-c2ccc3ncc4c(c3c2)n(C2CCOCC2)c(=O)n4C)cn1 [AZD0156]; conditions: max 3 µM
# In short: as §1
# AZD4320 = compound: CN(CC[C@H](CSC1=CC=CC=C1)NC2=C(C=C(C=C2)S(=O)(=O)NC(=O)C3=CC=C(C=C3)N4CCC(CC4)[C@H](C5=CC=CC=C5C6=CC=C(C=C6)Cl)O)S(=O)(=O)C(F)(F)F)CCO [AZD4320]; conditions: max 1 µM
# In short: as §1
# Alisertib = compound: COc1cc(Nc2ncc3c(n2)-c2ccc(Cl)cc2C(c2c(F)cccc2OC)=NC3)ccc1C(=O)O [Alisertib]; conditions: max 10 µM
# In short: as §1
# Etoposide = compound: COc1cc([C@@H]2c3cc4c(cc3[C@@H](O[C@@H]3O[C@@H]5CO[C@@H](C)O[C@H]5[C@H](O)[C@H]3O)[C@H]3COC(=O)[C@H]23)OCO4)cc(OC)c1O [Etoposide]; conditions: max 10 µM
# In short: as §1
# Gefitinib = compound: COc1cc2ncnc(Nc3ccc(F)c(Cl)c3)c2cc1OCCCN1CCOCC1 [Gefitinib]; conditions: max 10 µM
# In short: as §1
# Prexasertib = compound: COc1cccc(OCCCN)c1-c1cc(Nc2cnc(C#N)cn2)n[nH]1 [Prexasertib]; conditions: max 1 µM
# In short: as §1
# Doxorubicin = compound: COc1cccc2c1C(=O)c1c(O)c3c(c(O)c1C2=O)C[C@@](O)(C(=O)CO)C[C@@H]3O[C@H]1C[C@H](N)[C@H](O)[C@H](C)O1 [Doxorubicin]; conditions: max 1 µM
# In short: as §1
# AZD5153 = compound: COc1nnc2ccc(N3CCC(c4ccc(OCCN5CCN(C)C(=O)[C@H]5C)cc4)CC3)nn12 [AZD5153]; conditions: max 1 µM
# In short: as §1
# Lapatinib = compound: CS(=O)(=O)CCNCc1ccc(-c2ccc3ncnc(Nc4ccc(OCc5cccc(F)c5)c(Cl)c4)c3c2)o1 [Lapatinib]; conditions: max 10 µM
# In short: as §1
# AZD8186 = compound: C[C@@H](Nc1cc(F)cc(F)c1)c1cc(C(=O)N(C)C)cc2c(=O)cc(N3CCOCC3)oc12 [AZD8186]; conditions: max 10 µM
# In short: as §1
# Crizotinib = compound: C[C@@H](Oc1cc(-c2cnn(C3CCNCC3)c2)cnc1N)c1c(Cl)ccc(F)c1Cl [Crizotinib]; conditions: max 10 µM
# In short: as §1
# Savolitinib = compound: C[C@@H](c1ccc2nccn2c1)n1nnc2ncc(-c3cnn(C)c3)nc21 [Savolitinib]; conditions: max 1 µM
# In short: as §1
# AZD6738 = compound: C[C@@H]1COCCN1C2=NC(=NC(=C2)C3(CC3)[S@](=N)(=O)C)C4=C5C=CNC5=NC=C4 [AZD6738]; conditions: max 10 µM
# In short: as §1
# AZD5991 = compound: Cc1c2c(nn1C)CSCc1cc(n(C)n1)CSc1cc(c3ccccc3c1)OCCCc1c(C(=O)O)n(C)c3c-2c(Cl)ccc13 [AZD5991]; conditions: max 1 µM
# In short: as §1
# AZD7648 = compound: Cc1cc2ncnn2cc1Nc1ncc2c(n1)n(C1CCOCC1)c(=O)n2C [AZD7648]; conditions: max 10 µM
# In short: as §1
# Taselisib = compound: Cc1nc(-c2cn3c(n2)-c2ccc(-c4cnn(C(C)(C)C(N)=O)c4)cc2OCC3)n(C(C)C)n1 [Taselisib]; conditions: max 10 µM
# In short: as §1
# Selumetinib = compound: Cn1cnc2c(F)c(Nc3ccc(Br)cc3Cl)c(C(=O)NOCCO)cc21 [Selumetinib]; conditions: max 10 µM
# In short: as §1
# SRA737 = compound: N#Cc1cnc(Nc2cc(NC[C@H]3CNCCO3)c(C(F)(F)F)cn2)cn1 [SRA737]; conditions: max 10 µM
# In short: as §1
# MK-2206 = compound: NC1(c2ccc(-c3nc4ccn5c(=O)[nH]nc5c4cc3-c3ccccc3)cc2)CCC1 [MK-2206]; conditions: max 10 µM
# In short: as §1
# Gemcitabine = compound: Nc1ccn([C@@H]2O[C@H](CO)[C@@H](O)C2(F)F)c(=O)n1 [Gemcitabine]; conditions: max 0.3 µM
# In short: as §1
# [1] = compound: O=C(Nc1ccc2[nH]nc(-c3ccncc3)c2c1)[C@@H]1CCN(CC(=O)N2CCN(c3ccc(-c4ncccn4)cc3)CC2)C1; conditions: max 5 µM
# In short: as §1
# Olaparib = compound: O=C(c1cc(Cc2n[nH]c(=O)c3ccccc23)ccc1F)N1CCN(C(=O)C2CC2)CC1 [Olaparib]; conditions: max 10 µM
# In short: as §1
# 5-Fluorouracil = compound: O=c1[nH]cc(F)c(=O)[nH]1 [5-Fluorouracil]; conditions: max 20 µM
# In short: as §1
cell line,measurement,setting,value
ACHN (Kidney Carcinoma),"IC50, cell viability 72 h",Carboplatin,> 10000 nM
same,"IC50, cell viability 72 h",AZD5363,> 10000 nM
same,"IC50, cell viability 72 h",AZD1775,116 nM
same,"IC50, cell viability 72 h",Trametinib,> 1000 nM
same,"IC50, cell viability 72 h",Paclitaxel,461 nM
same,"IC50, cell viability 72 h",Palbociclib,4940 nM
same,"IC50, cell viability 72 h",AZD1390,> 300 nM
same,"IC50, cell viability 72 h",Venetoclax,> 1000 nM
same,"IC50, cell viability 72 h",Dasatinib,179 nM
same,"IC50, cell viability 72 h",SG3199,> 1 nM
same,"IC50, cell viability 72 h",AZD2811,> 1000 nM
same,"IC50, cell viability 72 h",SN-38,12.7 nM
same,"IC50, cell viability 72 h",AZD0156,> 3000 nM
same,"IC50, cell viability 72 h",AZD4320,> 1000 nM
same,"IC50, cell viability 72 h",Alisertib,9510 nM
same,"IC50, cell viability 72 h",Etoposide,5500 nM
same,"IC50, cell viability 72 h",Gefitinib,3430 nM
same,"IC50, cell viability 72 h",Prexasertib,10.8 nM
same,"IC50, cell viability 72 h",Doxorubicin,264 nM
same,"IC50, cell viability 72 h",AZD5153,623 nM
same,"IC50, cell viability 72 h",Lapatinib,8520 nM
same,"IC50, cell viability 72 h",AZD8186,> 10000 nM
same,"IC50, cell viability 72 h",Crizotinib,> 10000 nM
same,"IC50, cell viability 72 h",Savolitinib,> 1000 nM
same,"IC50, cell viability 72 h",AZD6738,970 nM
same,"IC50, cell viability 72 h",AZD5991,> 1000 nM
same,"IC50, cell viability 72 h",AZD7648,> 10000 nM
same,"IC50, cell viability 72 h",Taselisib,6330 nM
same,"IC50, cell viability 72 h",Selumetinib,> 10000 nM
same,"IC50, cell viability 72 h",SRA737,1580 nM
same,"IC50, cell viability 72 h",MK-2206,> 10000 nM
same,"IC50, cell viability 72 h",Gemcitabine,20.1 nM
same,"IC50, cell viability 72 h",[1],> 5000 nM
same,"IC50, cell viability 72 h",Olaparib,> 10000 nM
same,"IC50, cell viability 72 h",5-Fluorouracil,> 20000 nM
